Converted amounts (≈) assume the structure as drawn. Values belong to the molecule of their own block, whether it stands above or below them.
Columns and labels:
Test in all cases: ≥ marks a high value that may be exact or a test limit, other limits are often not marked, values filed in µg/mL are converted to µM
[1] = system: Escherichia coli BL21
[2] = system: Streptococcus pyogenes M1T1 5448
[3] = system: Pseudomonas aeruginosa PAO1
[4] = system: Vibrio alginolyticus
[5] = system: Escherichia coli ATCC 25922
[6] = system: Acinetobacter baumannii
[7] = system: Candida albicans 1
[8] = system: Bacillus subtilis CMCC 63501
[9] = system: Staphylococcus aureus CMCC 26003
[10] = system: Aeromonas sobria
[11] = system: Bacillus cereus CMCC 63301
[12] = system: Candida albicans CMCC 98001
[13] = system: Vibrio splendidus
[14] = system: Pseudomonas aeruginosa CMCC 10104
[15] = system: Vibrio harveyi
[16] = system: Enterococcus faecalis ATCC 29212
[17] = system: Escherichia coli CMCC 44102
[18] = system: Klebsiella pneumoniae
[19] = system: Vibrio vulnificus
[20] = system: Staphylococcus epidermidis
[21] = system: Candida glabrata
[22] = system: Aeromonas hydrophila
[23] = system: Enterococcus faecium
[24] = system: Clostridium perfringens ATCC 13124
[25] = system: Shigella flexneri ATCC 12022
[26] = system: Vibrio parahaemolyticus
[27] = system: Staphylococcus aureus ATCC 29231
[28] = system: Pseudomonas aeruginosa PA14
[29] = system: Acinetobacter baumannii ATCC 7978
[30] = system: Enterococcus faecium E007
[31] = system: Vibrio parahaemolyticus ATCC 17802
[32] = system: Pseudomonas aeruginosa ATCC 9027
[33] = system: Aeromonas salmonicida
[34] = system: Syspastospora parasitica
[35] = system: Staphylococcus aureus ATCC 33592
[36] = system: Edwardsiella tarda ATCC 15947
[37] = system: Escherichia coli ATCC 8739
[38] = system: Staphylococcus epidermidis ATCC 35984

MIC [1]: 0.25 µM (≈ 0.76 µg/mL) | MIC [2]: 2 µM (≈ 6.08 µg/mL) | MIC [3]: 16 µM (≈ 48.7 µg/mL)
Compound: CC[C@H](C)[C@H](NC(=O)[C@H](CCCN=C(N)N)NC(=O)[C@H](CC(N)=O)NC(=O)[C@@H](NC(=O)CNC(=O)[C@H](C)N)[C@@H](C)O)C(=O)N[C@@H](C)C(=O)N[C@@H](CCCCN)C(=O)N[C@@H](CCC(=O)O)C(=O)N[C@@H](CC(C)C)C(=O)N[C@@H](CCCN=C(N)N)C(=O)N[C@@H](CCCN=C(N)N)C(=O)N[C@@H](Cc1ccc(O)cc1)C(=O)N[C@H](C(=O)N[C@@H](CCCN=C(N)N)C(=O)N[C@@H](CCCCN)C(=O)N[C@H](C(=O)NCC(=O)N[C@@H](CCCN=C(N)N)C(=O)N[C@H](C(=O)N[C@@H](CCCCN)C(=O)N[C@@H](CCCN=C(N)N)C(=O)N[C@@H](CCCCN)C(=O)N[C@@H](C)C(=O)N[C@@H](Cc1c[nH]c2ccccc12)C(=O)O)[C@@H](C)CC)C(C)C)[C@@H](C)CC [AGTNRIAKELRRYIRKVGRIKRKAW]

MIC [4]: 31.9 µM (≈ 100 µg/mL) | MIC [5]: 2.99 µM (≈ 9.38 µg/mL) | MIC [6]: 31.9 µM (≈ 100 µg/mL) | MIC [7]: 31.9 µM (≈ 100 µg/mL) | MIC [8]: 11.9 µM (≈ 37.5 µg/mL) | MIC [9]: 2.99 µM (≈ 9.38 µg/mL) | MIC [10]: 31.9 µM (≈ 100 µg/mL) | MIC [11]: 31.9 µM (≈ 100 µg/mL) | MIC [12]: 31.9 µM (≈ 100 µg/mL) | MIC [13]: 23.9 µM (≈ 75 µg/mL) | MIC [14]: 31.9 µM (≈ 100 µg/mL) | MIC [15]: 23.9 µM (≈ 75 µg/mL) | MIC [16]: > 31.9 µM | MIC [17]: 5.97 µM (≈ 18.8 µg/mL) | MIC [18]: > 31.9 µM | MIC [19]: 31.9 µM (≈ 100 µg/mL) | MIC [20]: 31.9 µM (≈ 100 µg/mL) | MIC [21]: 31.9 µM (≈ 100 µg/mL) | MIC [22]: 11.9 µM (≈ 37.5 µg/mL) | MIC [23]: 31.9 µM (≈ 100 µg/mL) | MIC [24]: 11.9 µM (≈ 37.5 µg/mL) | MIC [25]: 5.97 µM (≈ 18.8 µg/mL)
Compound: CC[C@H](C)[C@H](NC(=O)[C@H](CC(N)=O)NC(=O)[C@H](CS)NC(=O)CNC(=O)[C@@H](N)CCC(=O)O)C(=O)N[C@@H](CC(C)C)C(=O)N[C@@H](CS)C(=O)N[C@@H](CC(C)C)C(=O)N[C@@H](CC(C)C)C(=O)N[C@@H](CCCCN)C(=O)N[C@@H](CCCN=C(N)N)C(=O)N[C@@H](CCCCN)C(=O)N[C@H](C(=O)N[C@@H](CCCCN)C(=O)N[C@@H](C)C(=O)N[C@H](C(=O)N[C@@H](CCCCN)C(=O)N[C@@H](CC(N)=O)C(=O)N[C@H](C(=O)N[C@H](C(=O)N[C@@H](CCCCN)C(=O)N[C@@H](CC(N)=O)C(=O)N[C@H](C(=O)N[C@H](C(=O)N[C@@H](CCCCN)C(=O)N[C@@H](CO)C(=O)N[C@H](C(=O)N[C@H](C(=O)NCC(=O)O)C(C)C)C(C)C)C(C)C)C(C)C)C(C)C)C(C)C)C(C)C)C(C)C [EGCNILCLLKRKVKAVKNVVKNVVKSVVG]
MIC [26]: 2.99 µM (≈ 9.38 µg/mL)

MIC [27]: 1.83 µM (≈ 3.99 µg/mL) | MIC [28]: 14.7 µM (≈ 32 µg/mL) | MIC [29]: 7.33 µM (≈ 16 µg/mL) | MIC [30]: ≥ 58.6 µM
Compound: CC[C@H](C)[C@H](NC(=O)[C@H](CCCCN)NC(=O)[C@H](Cc1c[nH]c2ccccc12)NC(=O)[C@@H](N)CC(C)C)C(=O)NCC(=O)N[C@@H](CCCCN)C(=O)N[C@@H](CCCCN)C(=O)N[C@H](C(=O)N[C@@H](Cc1c[nH]c2ccccc12)C(=O)N[C@@H](CCCN=C(N)N)C(=O)N[C@H](C(=O)N[C@@H](CC(C)C)C(=O)N[C@@H](Cc1c[nH]c2ccccc12)C(=O)N[C@@H](CC(N)=O)C(=O)N[C@@H](Cc1c[nH]c2ccccc12)C(=O)N[C@@H](CCCN=C(N)N)C(=O)O)C(C)C)[C@@H](C)CC [LWKIGKKIWRVLWNWR]

MIC [32]: 0.49 µM (≈ 0.981 µg/mL) | MIC [33]: ≥ 500 µM | MIC [34]: 7.81 µM (≈ 15.6 µg/mL) | MIC [35]: 31.2 µM (≈ 62.6 µg/mL) | MIC [36]: ≥ 62.5 µM | MIC [22]: ≥ 125 µM | MIC [37]: 7.81 µM (≈ 15.6 µg/mL) | MIC [38]: 15.6 µM (≈ 31.3 µg/mL)
Compound: NC(=O)[C@H](Cc1ccc(O)cc1)NC(=O)[C@H](Cc1c[nH]c2ccccc12)NC(=O)[C@H](CCCN=C(N)N)NC(=O)[C@H](CCCN=C(N)N)NC(=O)[C@H](Cc1ccc(O)cc1)NC(=O)[C@H](Cc1c[nH]c2ccccc12)NC(=O)[C@H](CCCN=C(N)N)NC(=O)[C@H](CCCN=C(N)N)NC(=O)[C@H](Cc1ccc(O)cc1)NC(=O)[C@H](Cc1c[nH]c2ccccc12)NC(=O)[C@H](CCCN=C(N)N)NC(=O)[C@@H](N)CCCN=C(N)N [RRWYRRWYRRWY]
MIC [31]: ≥ 125 µM
